pIC50: −log10 of the molar value. “And” between values parts separate entries of the source, which are not always exact repeats. Equal entries are not always repeated.
What was measured:
K-Ras-wildtype = K-Ras-wildtype (Homo sapiens, UniProt P01116); experiment: K-Ras-wildtype activation by SOS1 (wild-type KRAS activation by SOS1cat assay, HTRF); type: biochemical; conditions: mean, SOS1cat mediated loading of wild-type GST-KRAS-GDP with fluorescent GTP analogue, read-out: K-Ras-wildtype activation by SOS1 IC50 - [mol/l] (mean)
Procedure: (§1) Preparation of test compound dilutions. A 100-fold concentrated solution of the test compound (50 nL) in DMSO was transferred to microtiter test plates (384 or 1,536 wells, Greiner Bio-One, Germany) using either a Hummingbird liquid handler (Digilab, MA, USA) or an Echo acoustic system (Labcyte, CA, USA). Plates were sealed with adhesive foil or heat-sealed and stored at −20 C until use. Serial dilutions of test compounds were prepared in 100% DMSO using a Precision Pipetting System (BioTek, USA).
(§2) Measurement and evaluation of inhibition data, calculation of IC50 values. Homogeneous time-resolved fluorescence (HTRF) was measured with a PHERAstar reader (BMG, Germany) using the HTRF module (excitation: 337 nm; emission 1: 620 nm, emission 2: 665 nm). The ratio of the emissions at 665 and 620 nm was used as the specific signal for further evaluation. The data were normalized using the controls: DMSO=0% inhibition, inhibition control wells with inhibitor control solution=100% inhibition. Compounds were tested in duplicates at up to 11 concentrations (e.g. 20 μM, 5.7 μM, 1.6 μM, 0.47 μM, 0.13 μM, 38 nM, 11 nM, 3.1 nM, 0.89 nM, 0.25 nM and 0.073 nM). IC50 values were calculated using a four-parameter fit, with a commercial software package (Genedata Screener, Switzerland).
(§3) KRAS^G12C activation by SOS1^cat assay (“On-assay”). This assay quantifies SOS1^cat mediated loading of KRAS^G12C-GDP with a fluorescent GTP analogue. Detection of successful loading was achieved by measuring resonance energy transfer from anti-GST-terbium (FRET donor) bound to GST-KRAS^G12C to the loaded fluorescent GTP analogue (FRET acceptor). The fluorescent GTP analogue EDA-GTP-DY-647P1 [2′/3′-O-(2-aminoethyl-carbamoyl)guanosine-5′-triphosphate labelled with DY-647P1 (Dyomics GmbH, Germany)] was synthesized by Jena Bioscience (Germany) and supplied as a 1 mM aqueous solution. A KRAS^G12C working solution was prepared in assay buffer [10 mM HEPES pH 7.4 (AppliChem), 150 mM NaCl (Sigma), 5 mM MgCl2 (Sigma), 1 mM DTT (Thermo Fisher), 0.05% BSA Fraction V pH 7.0 (ICN Biomedicals), 0.0025% (v/v) Igepal (Sigma)] containing GST-KRAS^G12C (final concentration in assay 50 nM) and anti-GST-terbium (Cisbio, France) (final concentration in assay 1 nM). A SOS1^cat working solution was prepared in assay buffer containing SOS1^cat (final concentration 10 nM) and EDA-GTP-DY-647P1 (final concentration 100 nM). An inhibitor control solution was prepared in assay buffer containing EDA-GTP-DY-647P1 (final concentration 100 nM) without SOS1^cat. All steps of the assay were performed at 20° C. A volume of 3 μL of the KRAS^G12C working solution was added to all wells of the test plate using a Multidrop dispenser (Thermo LabSystems). After 15 min, 2 μL of the SOS1^ct working solution was added to all wells, except for the inhibitor control solution wells. After 30 min incubation, HTRF was measured.
(§4) G12D and Wild-type KRAS activation by SOS1cat assays. These assays quantify human SOS1^cat mediated loading of wild-type GST-KRAS^WT-GDP or GST-KRAS^G12D-GDP with a fluorescent GTP analogue. The assay was performed similarly to the KRAS^G12C activation by SOS1^cat assay with the following differences: final concentration of SOS1^cat of 60 nM and final incubation time before measurement of 10 min for KRAS^G12D assay, final concentration of SOS1^cat of 20 nM and final incubation time before measurement of 15 min for wild-type KRAS assay, respectively. GST-KRAS^G12C was replaced by GST-KRAS^WT or GST-KRAS^G12D, respectively, also at 50 nM final concentration.
Wild-type KRAS activation by SOS1^cat assay. This assay quantifies human SOS1^cat mediated loading of wild-type GST-KRAS-GDP with a fluorescent GTP analogue. The assay was performed similarly to the KRAS^G12D activation by SOS1^cat assay just by replacement of GST-KRAS^G12D by wild-type GST-KRAS while concentrations of all components and incubation times were the same.

K-Ras G12D = K-Ras G12D (Homo sapiens, UniProt P01116, G12D); experiment: K-Ras G12D activation by SOS1 (KRAS G12D activation by SOS1cat assay, HTRF); type: biochemical; conditions: mean, SOS1cat mediated loading of GST-KRAS G12D-GDP with fluorescent GTP analogue, read-out: K-Ras G12D activation by SOS1 IC50 - [mol/l] (mean)
Procedure: as §1, §2, §3, §4
KRAS^G12D activation by SOS1^cat assay (“On-assay”). This assay quantifies SOS1^cat mediated loading of KRAS^G12D-GDP with a fluorescent GTP analogue. Detection of successful loading was achieved by measuring resonance energy transfer from anti-GST-terbium (FRET donor) bound to GST-KRAS^G12D to the loaded fluorescent GTP analogue (FRET acceptor).

K-Ras G12D, sequence (P01116 1-188 isoform P01116-2 G12D): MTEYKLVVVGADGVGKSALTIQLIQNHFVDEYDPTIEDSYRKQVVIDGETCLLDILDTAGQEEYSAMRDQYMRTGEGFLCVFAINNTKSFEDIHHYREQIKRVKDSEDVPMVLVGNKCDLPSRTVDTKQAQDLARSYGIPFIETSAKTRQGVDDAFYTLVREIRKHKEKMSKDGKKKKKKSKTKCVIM
K-Ras-wildtype, sequence (P01116 1-188 isoform P01116-2): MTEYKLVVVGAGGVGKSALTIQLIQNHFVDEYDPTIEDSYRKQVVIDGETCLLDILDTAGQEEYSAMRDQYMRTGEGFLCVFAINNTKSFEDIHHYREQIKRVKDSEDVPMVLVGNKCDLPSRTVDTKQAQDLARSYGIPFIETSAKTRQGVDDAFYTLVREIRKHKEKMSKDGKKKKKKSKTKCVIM

## Oc1cc(Nc2nc3c(N4CC5COCC(C4)N5)nc(OC[C@@]45CCCN4C[C@H](F)C5)nc3s2)c2ccccc2c1 [Example 30, 4-{[5-{[(2R,7aS)-2-fluorotetrahydro-1H-pyrrolizin-7a(5H)-yl]methoxy}-7-(3-oxa-7,9-diazabicyclo[3.3.1]nonan-7-yl) [1,3]thiazolo[5,4-d]pyrimidin-2-yl]amino}-2-naphthol]
K-Ras-wildtype
  pIC50: 5.12
K-Ras G12D
  pIC50: 4.97

## C#Cc1cccc2cc(O)cc(Oc3nc4c(N5CC6CCC(C5)N6)nc(OCC56CCCN5CCC6)nc4s3)c12 [Example 2, 4-{[7-(3,8-diazabicyclo[3.2.1]octan-3-yl)-5-(tetrahydro-1H-pyrrolizin-7a(5H)-ylmethoxy)[1,3]thiazolo[5,4-d]pyrimidin-2-yl]oxy}-5-ethynyl-2-naphthol]
K-Ras-wildtype
  pIC50: 6.90
K-Ras G12D
  pIC50: 8.26

## C#Cc1c(F)ccc2cc(O)cc(Oc3nc4c(N5CC6CCC(C5)N6)nc(OC[C@@]56CCCN5CC(F)C6)nc4s3)c12 (stereo in doubt) [Example 6, 4-{[7-(3,8-diazabicyclo[3.2.1]octan-3-yl)-5-{[(2R,7aS)-2-fluorotetrahydro-1H-pyrrolizin-7a(5H)-yl]methoxy}[1,3]thiazolo[5,4-d]pyrimidin-2-yl]oxy}-5-ethynyl-6-fluoronaphthalen-2-ol]
K-Ras-wildtype
  pIC50: 7.48
K-Ras G12D
  pIC50: 8.73 and 8.66

## C#Cc1c(F)ccc2cc(O)cc(Oc3nc4c(N5C[C@H]6CC(F)[C@@H](C5)N6)nc(OC[C@@]56CCCN5C[C@H](F)C6)nc4s3)c12 (single isomer, unassigned) [Example 27, 5-Ethynyl-6-fluoro-4-[(7-[(1R*,5R*)-6-fluoro-3,8-diazabicyclo[3.2.1]octan-3-yl]-5-{[(2R,7aS)-2-fluorotetrahydro-1H-pyrrolizin-7a(5H)-yl]methoxy}[1,3]thiazolo[5,4-d]pyrimidin-2-yl)oxy]naphthalen-2-ol]
K-Ras-wildtype
  pIC50: 7.04
K-Ras G12D
  pIC50: 7.63

## Oc1cc(Oc2nc3c(N4CC5CCC(C4)N5)nc(OCC45CCCN4CCC5)nc3s2)c2c(Cl)cccc2c1 [Example 15, Formic acid-5-Chlor-4-{[7-(3,8-diazabicyclo[3.2.1]octan-3-yl)-5-(tetrahydro-1H-pyrrolizin-7a(5H)-ylmethoxy)[1,3]thiazolo[5,4-d]pyrimidin-2-yl]oxy}-2-naphthol (2:1)]
K-Ras-wildtype
  pIC50: 5.97
K-Ras G12D
  pIC50: 7.45

## Cc1cccc2cc(O)cc(Oc3nc4c(N5CC6CCC(C5)N6)nc(OCC56CCCN5CCC6)nc4s3)c12 [Example 4, 4-({7-(3,8-diazabicyclo[3.2.1]octan-3-yl)-5-[(tetrahydro-1H-pyrrolizin-7a(5H)-yl)methoxy][1,3]thiazolo[5,4-d]pyrimidin-2-yl}oxy)-5-methylnaphthalen-2-ol]
K-Ras-wildtype
  pIC50: 5.81
K-Ras G12D
  pIC50: 7.10

## C#Cc1cccc2cc(O)cc(N(C)c3nc4c(N5CC6CCC(C5)N6)nc(OC[C@@]56CCCN5C[C@H](F)C6)nc4s3)c12 [Example 31, 4-{[7-(3,8-diazabicyclo[3.2.1]octan-3-yl)-5-{[(2R,7aS)-2-fluorotetrahydro-1H-pyrrolizin-7a(5H)-yl]methoxy}[1,3]thiazolo[5,4-d]pyrimidin-2-yl](methyl)amino}-5-ethynylnaphthalen-2-ol]
K-Ras-wildtype
  pIC50: 7.21
K-Ras G12D
  pIC50: 8.35

## C=Cc1c(F)ccc2cc(O)cc(Oc3nc4c(N5CC6CCC(C5)N6)nc(OC[C@@]56CCCN5C[C@H](F)C6)nc4s3)c12 [Example 17, 4-{[7-(3,8-diazabicyclo[3.2.1]octan-3-yl)-5-{[(2R,7aS)-2-fluorotetrahydro-1H-pyrrolizin-7a(5H)-yl]methoxy}[1,3]thiazolo[5,4-d]pyrimidin-2-yl]oxy}-5-ethenyl-6-fluoronaphthalen-2-ol]
K-Ras-wildtype
  pIC50: 6.37
K-Ras G12D
  pIC50: 7.87
